Results: patent US7005430B2, “Fused purine derivatives” (Kyowa Hakko Kogyo Co., Ltd., priority 1999, dated 2006)
Where a name gives a salt, the structure may show the parent alone.

Tested on: MIN6 cell
Test: Insulin secretion promoting activity for cultured β cells (MIN6)
Format: cell-based
Details: for secretion promoting action at a low glucose concentration (in words): MIN6 cells, glucose at a low concentration (5 mmol/L)
Procedure: Culture of the MIN6 cells above and insulin secretion test utilizing the MIN6 cells were performed according to the methods described in Diabetologia, vol. 36, pp. 1139–1145, 1993. The effect of a compound on the insulin secretion in the presence of 14.5 mmol/L glucose was determined by measuring insulin amounts in cell culture supernatants collected as follows. MIN6 cells cultured on a 24-well plate were washed twice by using 1 mL of Buffer A (119 mmol/L sodium chloride, 4.74 mmol/L potassium chloride, 2.54 mmol/L calcium chloride, 1.19 mmol/L magnesium sulfate, 1.19 mmol/L potassium dihydrogenphosphate, 10 mmol/L 2-[4-(2-hydroxyethyl)-1-piperazinyl]ethanesulfonic acid, 0.1% bovine serum albumin, pH 7.3) containing 2 mmol/L glucose, and then were incubated in 1 mL of Buffer A containing 2 mmol/L glucose at 37° C. for 45 minutes. After the incubation, the culture supernatant was changed to Buffer A (0.9 mL) containing a test compound at various concentrations and 2 mmol/L glucose, and the cells were further incubated at 37° C. for 15 minutes. The MIN6 cells were stimulated with glucose by the addition of Buffer A (0.1 mL) containing 127 mmol/L glucose to the culture (final glucose concentration: 14.5 mmol/L). After the stimulation, the cells were further incubated at 37° C. for 45 minutes, and then the culture supernatant was collected.
Separately, the effect of a compound on the insulin secretion in the presence of 5 mmol/L glucose was determined by measuring insulin amounts in cell culture supernatants collected as follows. MIN6 cells cultured on a 24-well plate were washed twice by using 1 mL of Buffer A containing 5 mmol/L glucose, and then the culture supernatant was changed to Buffer A (0.9 mL) containing a test compound at various concentrations and 5 mmol/L glucose. Then, the cells were incubated at 37° C. for 45 minutes (final glucose concentration: 5 mmol/L), and the culture supernatant was collected.
After the culture supernatant was diluted with a phosphate buffer containing 1% bovine serum albumin, 0.1% Tween 20, 0.12% disodium ethylenediaminetetraacetate (EDTA) and 0.1% sodium azide, antibody-reactive insulin secreted in the culture supernatant was quantified by enzyme immunoassay or radio immunoassay. The insulin level was indicated as the amount of human insulin (ng/mL). The results are indicated as averages (avg) for 3 to 4 samples with standard erroe values (se).

[1] = in the presence of 5 mmol/L of glucose, drug concentration 10 (mmol/L [sic]), None = 51.2
[2] = in the presence of 14.5 mmol/L of glucose, drug concentration 1.0 μmol/L, None = 148.4

SMILES | Insulin secretion amount (ng/ml) avg [1] | Insulin secretion amount (ng/ml) avg [2] | secretion promoting action at a low glucose concentration (in words) | Insulin secretion amount (ng/ml) avg (in the presence of 5 mmol/L of glucose, drug concentration 0.1 (mmol/L [sic]), None = 51.2) | Insulin secretion amount (ng/ml) avg (in the presence of 14.5 mmol/L of glucose, drug concentration 0.1 μmol/L, None = 148.4) | Insulin secretion amount (ng/ml) avg (in the presence of 14.5 mmol/L of glucose, drug concentration 10 μmol/L, None = 148.4)
CC(C)(O)CN1C(=O)N2C[C@@H](Cc3ccccc3)N=C2c2[nH]c(C3CCCC3)nc21 [Compound 81, (R)-8-Benzyl-2-cyclopentyl-7,8-dihydro-4-(2-hydroxy-2-methylpropyl)-1H-imidazo[2,1-i]purin-5(4H)-one hydrochloride] | 83.1 ng/mL | 195.4 ng/mL | – | – | – | –
CCCN1C(=O)N2C[C@@H](Cc3ccncc3)N=C2c2[nH]c(C3CCCCC3)nc21 [Compound 9, (R)-2-Cyclohexyl-7,8-dihydro-8-(4-picolyl)-4-(n-propyl)-1H-imidazo[2,1-i]purin-5(4H)-one] | 74.0 ng/mL | 197.6 ng/mL | – | – | – | –
COc1ccc(Cl)cc1C(=O)NCCc1ccc(S(=O)(=O)NC(=O)NC2CCCCC2)cc1 [Glibenclamide, reference compound] | – | – | marked secretion promoting action | 156.8 ng/mL | 177.8 ng/mL | –
CC(C)[C@H]1CC[C@H](C(=O)N[C@H](Cc2ccccc2)C(=O)O)CC1 [AY4166, reference compound] | 170.8 ng/mL | – | marked secretion promoting action | – | – | 195.1 ng/mL
CCCN1C(=O)N2C[C@@H](Cc3ccccc3)N=C2c2[nH]c(COCc3ccccc3)nc21.CCCN1C(=O)N2C[C@@H](Cc3ccccc3)N=C2c2[nH]c(COCc3ccccc3)nc21.O=C(O)/C=C/C(=O)O [Compound 56, (R)-8-Benzyl-2-benzyloxymethyl-7,8-dihydro-4-(n-propyl)-1H-imidazo[2,1-i]purin-5(4H)-one 0.5 fumarate] | 56.2 ng/mL | 189.0 ng/mL | – | – | – | –
CCCN1C(=O)N2C[C@@H](Cc3ccccc3)N=C2c2[nH]c(C3CCCO3)nc21 (stereo partly drawn) [Compound 51, (R)-8-Benzyl-7,8-dihydro-4-(n-propyl)-2-(tetrahydrofuran-2-yl)-1H-imidazo[2,1-i]purin-5(4H)-one D-tartrate] | 79.2 ng/mL | 180.8 ng/mL | – | – | – | –
O=C1N2CC(Cc3ccncc3)N=C2c2[nH]c(C3CCCC3)nc2N1CC1CC1 (stereo not shown) [Compound 14, 2-Cyclopentyl-4-cyclopropylmethyl-7,8-dihydro-8-(4-picolyl)-1H-imidazo[2,1-i]purin-5(4H)-one dihydrochloride] | 66.4 ng/mL | 177.9 ng/mL | – | – | – | –
CC(C)(O)CCN1C(=O)N2C[C@@H](Cc3ccccc3)N=C2c2[nH]c(C3CCCC3)nc21 [Compound 85, (R)-8-Benzyl-2-cyclopentyl-7,8-dihydro-4-(3-hydroxy-3-methylbutyl)-1H-imidazo[2,1-i]purin-5(4H)-one hydrochloride] | 53.6 ng/mL | 197.1 ng/mL | – | – | – | –
CSCCCOC1=Nc2nc(C3CCCC3)[nH]c2C2=N[C@H](Cc3ccccc3)CN12 [Compound 71, (R)-8-Benzyl-2-cyclopentyl-7,8-dihydro-5-(3-methylthiopropyloxy)-1H-imidazo[2,1-i]purine] | 107.7 ng/mL | 211.0 ng/mL | – | – | – | –
CCCN1C(=O)N2C[C@@H](Cc3ccncc3)N=C2c2[nH]c(C3CCC3)nc21 [Compound 10, (R)-2-Cyclobutyl-7,8-dihydro-8-(4-picolyl)-4-(n-propyl)-1H-imidazo[2,1-i]purin-5(4H)-one D-tartrate] | 74.9 ng/mL | 196.8 ng/mL | – | – | – | –
